pIC50: −log10 of the molar value.
Target: T1, human EP2 (PTGER2) (Homo sapiens, UniProt P43116)
T1 construct: Cayman Chemical (Human EP2 Reporter Assay Kit)
Experiment: EP2 antagonist assay (HEK-293 CNG membrane potential cAMP assay / 293T SEAP reporter assay, PGE2-stimulated)
Format: cell-based
Conditions: EP2 antagonist activity; concentration for 50% inhibition of signal compared to DMSO
Procedure, shortened: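 Two formats. In a CRE-SEAP reporter assay, reverse-transfected 293T cells received compound with PGE2 (13 nM final) for 6-8 h, then luminescence was read. In the ACTOne CNG format, HEK-293 cells were preincubated with compound for 15 min at RT, stimulated with 5 nM PGE2 for 30 min, and read by membrane-potential dye fluorescence. IC50 was taken versus DMSO.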

T1 sequence (P43116 whole entry): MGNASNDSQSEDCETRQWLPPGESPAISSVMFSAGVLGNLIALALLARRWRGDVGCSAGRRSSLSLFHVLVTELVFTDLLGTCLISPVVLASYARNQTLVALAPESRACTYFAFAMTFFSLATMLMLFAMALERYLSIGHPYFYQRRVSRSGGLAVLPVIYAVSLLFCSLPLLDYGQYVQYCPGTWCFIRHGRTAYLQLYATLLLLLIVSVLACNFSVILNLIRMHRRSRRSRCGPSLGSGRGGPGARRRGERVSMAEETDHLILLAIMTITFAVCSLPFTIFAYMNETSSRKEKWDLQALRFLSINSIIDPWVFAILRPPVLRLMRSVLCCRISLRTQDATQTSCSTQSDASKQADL

| Molecule | pIC50 |
| --- | --- |
| O=C(O)c1ccc(C2(NC(=O)c3ccc(Nc4cc(F)cc(F)c4)c4ccn(Cc5ccc(C(F)(F)F)cc5)c34)CC2)cc1 [Example 66, 4-(1-(4-((3,5-difluorophenyl)amino)-1-(4-(trifluoromethyl)benzyl)-1H-indole-7-carboxamido)cyclopropyl)benzoic acid] | 6.00 to 7.00 |
| C[C@H](NC(=O)c1cc(-c2cc(F)cc(F)c2)cc2ccn(Cc3ccc4ccccc4c3)c12)c1ccc(C(=O)O)cc1 [Example 164, (S)-4-(1-(5-(3,5-difluorophenyl)-1-(naphthalen-2-ylmethyl)-1H-indole-7-carboxamido)ethyl)benzoic acid] | > 7.00 |
| O=C(O)c1ccc(CNC(=O)c2cc(-c3ccccc3)cc3ccn(Cc4cccc(C(F)(F)F)c4)c23)cc1 [Example 122, 4-((5-phenyl-1-(3-(trifluoromethyl)benzyl)-1H-indole-7-carboxamido)methyl)benzoic acid] | > 7.00 |
| C[C@H](NC(=O)c1cc(-c2ccc(F)c(F)c2)cc2cnn(Cc3cccc(C(F)(F)F)c3)c12)c1ccc(C(=O)O)cc1 [Example 220, (S)-4-(1-(5-(3,4-difluorophenyl)-1-(3-(trifluoromethyl)benzyl)-1H-indazole-7-carboxamido)ethyl)benzoic acid] | > 7.00 |
| O=C(O)c1ccc(CNC(=O)c2cc(-c3cc(F)cc(F)c3)cc3cnn(Cc4ccc(-c5ccccc5)cc4)c23)cc1 [Example 192, 4-((1-([1,1′-biphenyl]-4-ylmethyl)-5-(3,5-difluorophenyl)-1H-indazole-7-carboxamido)methyl)benzoic acid] | > 7.00 |
| O=C(O)c1ccc(CNC(=O)c2cc(-c3cc(F)cc(C(F)(F)F)c3)cc3ccn(Cc4ccc(C(F)(F)F)cc4)c23)cc1 [Example 11, 4-((5-(3-fluoro-5-(trifluoromethyl)phenyl)-1-(4-(trifluoromethyl)benzyl)-1H-indole-7-carboxamido)methyl)benzoic acid] | > 7.00 |
| N#Cc1cccc(-c2cc(C(=O)NCC34CC(C(=O)O)(C3)C4)c3c(Sc4ccc(C(F)(F)F)cc4)c[nH]c3c2)c1 [Example 119, 3-((6-(3-cyanophenyl)-3-((4-(trifluoromethyl)phenyl)thio)-1H-indole-4-carboxamido)methyl)bicyclo[1.1.1]pentane-1-carboxylic acid] | 6.00 to 7.00 |
| C[C@H](NC(=O)c1cc(-c2cccc(C#N)c2)cc2ccn(Cc3cccc(Cl)c3)c12)c1ccc(C(=O)O)cc1 [Example 108, (S)-4-(1-(1-(3-chlorobenzyl)-5-(3-cyanophenyl)-1H-indole-7-carboxamido)ethyl)benzoic acid] | > 7.00 |
| O=C(O)c1ccc(CNC(=O)c2cc(-c3cc(F)cc(F)c3)cc3ccn(Cc4cccc(C(F)(F)F)c4)c23)cc1 [Example 125, 4-((5-(3,5-difluorophenyl)-1-(3-(trifluoromethyl)benzyl)-1H-indole-7-carboxamido)methyl)benzoic acid] | > 7.00 |
| O=C(O)c1ccc(CNC(=O)c2ccc(Nc3ccccc3)c3ccn(Cc4cccc(Cl)c4)c23)cc1 [Example 103, 4-((1-(3-chlorobenzyl)-4-(phenylamino)-1H-indole-7-carboxamido)methyl)benzoic acid] | 6.00 to 7.00 |
| O=C(O)c1ccc(CNC(=O)c2cc(-c3cc(F)cc(F)c3)cc3ncn(Cc4ccc(C(F)(F)F)cc4)c23)cc1 [Example 173, 4-((5-(3,5-difluorophenyl)-1-(4-(trifluoromethyl)benzyl)-1H-benzo[d]imidazole-7-carboxamido)methyl)benzoic acid] | > 7.00 |
| O=C(O)c1ccc(CNC(=O)c2cc(-c3ccc(F)cc3)cc3ncn(Cc4ccc(C(F)(F)F)cc4)c23)cc1 [Example 172, 4-((5-(4-fluorophenyl)-1-(4-(trifluoromethyl)benzyl)-1H-benzo[d]imidazole-7-carboxamido)methyl)benzoic acid] | > 7.00 |
| ((5-(3-cyano-5-fluorophenyl)-1-(4-(trifluoromethyl)benzyl)-1H-indole-7-carboxamido)methyl)benzoic acid [Example 77] | > 7.00 |
| Cn1cc(Sc2ccc(C(F)(F)F)cc2)c2c(C(=O)NCc3ccc(C(=O)O)cc3)cc(-c3cccc(C#N)c3)cc21 [Example 120, 4-((6-(3-cyanophenyl)-1-methyl-3-((4-(trifluoromethyl)phenyl)thio)-1H-indole-4-carboxamido)methyl)benzoic acid] | 6.00 to 7.00 |
| O=C(O)c1ccc(CNC(=O)c2cc(-c3ccccc3)cc3ccn(Cc4cccc(-c5ccccc5)c4)c23)cc1 [Example 145, ((1-([1,1′-biphenyl]-3-ylmethyl)-5-phenyl-1H-indole-7-carboxamido)methyl)benzoic acid] | > 7.00 |
| O=C(O)c1ccc(CNC(=O)c2cc(-c3ccccc3O)cc3ccn(Cc4ccc(C(F)(F)F)cc4)c23)cc1 [Example 86, 4-((5-(2-hydroxyphenyl)-1-(4-(trifluoromethyl)benzyl)-1H-indole-7-carboxamido)methyl)benzoic acid] | > 7.00 |

| Molecule | pIC50 |
| --- | --- |
| C[C@H](NC(=O)c1cc(-c2ccc(F)c(F)c2)cc2cnn(Cc3ccc(C(F)(F)F)cc3)c12)c1ccc(C(=O)O)cc1 [Example 195, (S)-4-(1-(5-(3,4-difluorophenyl)-1-(4-(trifluoromethyl)benzyl)-1H-indazole-7-carboxamido)ethyl)benzoic acid] | > 7.00 |
| O=C(O)c1ccc(CNC(=O)c2cc(-c3ccccc3)cc3ccn(Cc4cccc5ccccc45)c23)cc1 [Example 177, 44-((1-(naphthalen-1-ylmethyl)-5-phenyl-1H-indole-7-carboxamido)methyl)benzoic acid] | > 7.00 |
| O=C(O)c1ccc(CNC(=O)c2cc(-c3ccccc3)cc3ccn(Cc4ccc5ccccc5c4)c23)cc1 [Example 159, 4-((1-(naphthalen-2-ylmethyl)-5-phenyl-1H-indole-7-carboxamido)methyl)benzoic acid] | > 7.00 |
| O=C(O)c1ccc(CNC(=O)c2cc(-c3cccc(C(F)(F)F)c3)cc3ccn(Cc4ccc(C(F)(F)F)cc4)c23)cc1 [Example 10, 4-((1-(4-(trifluoromethyl)benzyl)-5-(3-(trifluoromethyl)phenyl)-1H-indole-7-carboxamido)methyl)benzoic acid] | 6.00 to 7.00 |
| CC(c1ccc(C(F)(F)F)cc1)n1ccc2cc(-c3ccccc3)cc(C(=O)NCc3ccc(C(=O)O)cc3)c21 (racemic) [Example 178, (±) 4-((5-phenyl-1-(1-(4-(trifluoromethyl)phenyl)ethyl)-1H-indole-7-carboxamido)methyl)benzoic acid] | > 7.00 |
| O=C(O)c1ccc(CNC(=O)c2cc(-c3ccc(F)c(F)c3)cc3ccn(Cc4ccc5ccccc5c4)c23)cc1 [Example 216, 4-((5-(3,4-difluorophenyl)-1-(naphthalen-2-ylmethyl)-1H-indole-7-carboxamido)methyl)benzoic acid] | > 7.00 |
| N#Cc1cc(-c2cc(C(=O)NCc3ccc(C(=O)O)cc3)c3c(ccn3Cc3ccc(C(F)(F)F)cc3)c2)ccc1F [Example 79, 4-((5-(3-cyano-4-fluorophenyl)-1-(4-(trifluoromethyl)benzyl)-1H-indole-7-carboxamido)methyl)benzoic] | 6.00 to 7.00 |
| C[C@@H](NC(=O)c1cc(-c2cccc(C(F)(F)F)c2)cc2ccn(Cc3ccc(C(F)(F)F)cc3)c12)c1ccc(C(=O)O)cc1 [Example 15, (R)-4-(1-(1-(4-(trifluoromethyl)benzyl)-5-(3-(trifluoromethyl)phenyl)-1H-indole-7-carboxamido)ethyl) benzoic acid] | ≤ 6.00 |
| C[C@H](NC(=O)c1cc(-c2cc(F)cc(F)c2)cc2ccn(Cc3cccc(C(F)(F)F)c3)c12)c1ccc(C(=O)O)cc1 [Example 130, (S)-4-(1-(5-(3,5-difluorophenyl)-1-(3-(trifluoromethyl)benzyl)-1H-indole-7-carboxamido)ethyl)benzoic acid] | > 7.00 |
| O=C(O)c1ccc(CNC(=O)c2ccc(Nc3ccccc3)c3ccn(Cc4ccc5ccccc5n4)c23)cc1 [Example 153, 4-((4-(phenylamino)-1-(quinolin-2-ylmethyl)-1H-indole-7-carboxamido)methyl)benzoic acid] | > 7.00 |
| O=C(O)c1ccc(CNC(=O)c2cc(-c3cc(F)cc(F)c3)cc3ccn(Cc4ccc5ccccc5c4)c23)cc1 [Example 161, 4-((5-(3,5-difluorophenyl)-1-(naphthalen-2-ylmethyl)-1H-indole-7-carboxamido)methyl)benzoic acid] | > 7.00 |
| C[C@H](NC(=O)c1cc(-c2cc(F)cc(F)c2)cc2cnn(Cc3ccc(-c4ccccc4)cc3)c12)c1ccc(C(=O)O)cc1 [Example 200, (S)-4-(1-(1-([1,1′-biphenyl]-4-ylmethyl)-5-(3,5-difluorophenyl)-1H-indazole-7-carboxamido)ethyl)benzoic acid] | > 7.00 |
| N#Cc1cccc(-c2ccc(C(=O)NC3(c4ccc(C(=O)O)cc4)CC3)c3c2ccn3Cc2ccc(C(F)(F)F)cc2)c1 [Example 37, 4-(1-(4-(3-cyanophenyl)-1-(4-(trifluoromethyl)benzyl)-1H-indole-7-carboxamido)cyclopropyl)benzoic acid] | ≤ 6.00 |
| COc1cccc(Cn2ccc3c(Nc4ccccc4)ccc(C(=O)N[C@@H](C)c4ccc(C(=O)O)cc4)c32)c1 [Example 158, (S)-4-(1-(1-(3-methoxybenzyl)-4-(phenylamino)-1H-indole-7-carboxamido)ethyl)benzoic acid] | > 7.00 |
| C[C@@H](NC(=O)c1cc(-c2ccccc2)cc2ccn(Cc3ccc(C(F)(F)F)cc3)c12)c1ccc(C(=O)O)cc1 [Example 4, (R)-4-(1-(5-phenyl-1-(4-(trifluoromethyl)benzyl)-1H-indole-7-carboxamido)ethyl)benzoic acid] | ≤ 6.00 |
| O=C(O)c1ccc(CNC(=O)c2ccc(N3CCOCC3)c3ccn(Cc4ccc(C(F)(F)F)cc4)c23)cc1 [Example 58, 4-((4-morpholino-1-(4-(trifluoromethyl)benzyl)-1H-indole-7-carboxamido)methyl)benzoic acid] | ≤ 6.00 |
